Results taken from PubChem BioAssay (NCI).
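Compound exposure: 48 hours, 5 concentrations, 96-well plates. The concentration for 50% growth inhibition is given as GI50. TGI is the concentration that stops growth completely.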

Legend:
Assay in all cases: NCI anticancer screen, dose series, 48 h
[1] = system: MDA-MB-231 breast
[2] = system: T-47D breast
[3] = system: HCT-116 colon
[4] = system: MCF7 breast
[5] = system: HCC-2998 colon
[6] = system: SF-268 CNS
[7] = system: SF-295 CNS
[8] = system: TK-10 renal
[9] = system: EKVX NSCLC
[10] = system: SF-539 CNS
[11] = system: SK-MEL-28 melanoma
[12] = system: SW-620 colon
[13] = system: HT29 colon
[14] = system: HOP-62 NSCLC
[15] = system: OVCAR-5 ovarian
[16] = system: HCT-15 colon
[17] = system: CCRF-CEM leukemia
[18] = system: OVCAR-3 ovarian
[19] = system: NCI-H226 lung
[20] = system: SK-OV-3 ovarian
[21] = system: HS 578T breast
[22] = system: BT-549 breast
[23] = system: HOP-92 NSCLC
[24] = system: RXF 393 renal
[25] = system: IGROV1 ovarian
[26] = system: UACC-62 melanoma
[27] = system: K-562 leukemia
[28] = system: OVCAR-4 ovarian
[29] = system: U251 CNS
[30] = system: DU-145 prostate
[31] = system: SK-MEL-2 melanoma
[32] = system: MDA-MB-468 breast
[33] = system: LOX IMVI melanoma
[34] = system: NCI/ADR-RES ovarian
[35] = system: SN12C renal
[36] = system: NCI-H460 lung
[37] = system: SR leukemia
[38] = system: A549 NSCLC
[39] = system: RPMI-8226 leukemia
[40] = system: COLO 205 colon
[41] = system: SNB-19 CNS
[42] = system: CAKI-1 renal
[43] = system: UO-31 renal
[44] = system: HL-60(TB) leukemia
[45] = system: ACHN renal
[46] = system: NCI-H522 lung
[47] = system: 786-0 renal
[48] = system: OVCAR-8 ovarian
[49] = system: SK-MEL-5 melanoma
[50] = system: UACC-257 melanoma
[51] = system: A498 renal
[52] = system: MOLT-4 leukemia
[53] = system: NCI-H23 lung
[54] = system: MALME-3M melanoma
[55] = system: KM12 colon
[56] = system: PC-3 prostate

Cc1ccc(/C=C(\C#N)n2nnc3c(F)cccc32)cc1
GI50 [1]: 426 nM | TGI [1]: 2770 nM | GI50 [2]: 1630 nM | TGI [2]: > 100000 nM | GI50 [3]: 285 nM | TGI [3]: > 35800 nM | GI50 [4]: 1530 nM | TGI [4]: > 100000 nM | GI50 [5]: 971 nM | TGI [5]: 3240 nM | GI50 [6]: 765 nM | TGI [6]: > 61500 nM | GI50 [7]: 289 nM | TGI [7]: 50800 nM | GI50 [8]: 2700 nM | TGI [8]: 7790 nM | GI50 [9]: 1560 nM | TGI [9]: > 94100 nM | GI50 [10]: 200 nM | TGI [10]: 467 nM | GI50 [11]: 825 nM | TGI [11]: > 100000 nM | GI50 [12]: 250 nM | TGI [12]: > 100000 nM | GI50 [13]: 426 nM | TGI [13]: > 100000 nM | GI50 [14]: 398 nM | TGI [14]: 6290 nM | GI50 [15]: 421 nM | TGI [15]: 5240 nM | GI50 [16]: 319 nM | TGI [16]: > 100000 nM | GI50 [17]: 285 nM | TGI [17]: 1660 nM | GI50 [18]: 254 nM | TGI [18]: 941 nM | GI50 [19]: 936 nM | TGI [19]: > 62900 nM | GI50 [20]: 585 nM | TGI [20]: 46200 nM | GI50 [21]: 379 nM | TGI [21]: > 100000 nM | GI50 [22]: 365 nM | TGI [22]: 2490 nM | GI50 [23]: 79.7 nM | TGI [23]: 1680 nM | GI50 [24]: 237 nM | TGI [24]: 735 nM | GI50 [25]: 507 nM | TGI [25]: 9150 nM | GI50 [26]: 273 nM | TGI [26]: 27000 nM | GI50 [27]: 62.4 nM | GI50 [28]: 2790 nM | TGI [28]: > 100000 nM | GI50 [29]: 387 nM | TGI [29]: > 42700 nM | GI50 [30]: 386 nM | TGI [30]: > 100000 nM | GI50 [31]: 302 nM | TGI [31]: > 100000 nM | GI50 [32]: 1530 nM | TGI [32]: 8710 nM | GI50 [33]: 349 nM | TGI [33]: 2300 nM | GI50 [34]: 111 nM | TGI [34]: 343 nM | GI50 [35]: 416 nM | TGI [35]: 2250 nM | GI50 [36]: 376 nM | TGI [36]: 3300 nM | GI50 [37]: 254 nM | TGI [37]: 4310 nM | GI50 [38]: 504 nM | TGI [38]: > 100000 nM | GI50 [39]: 296 nM | TGI [39]: 1710 nM | GI50 [40]: 294 nM | TGI [40]: 739 nM | GI50 [41]: 718 nM | TGI [41]: > 100000 nM | GI50 [42]: 152 nM | TGI [42]: > 100000 nM | GI50 [43]: 324 nM | TGI [43]: > 100000 nM | GI50 [44]: 196 nM | TGI [44]: 519 nM | GI50 [45]: 555 nM | TGI [45]: > 100000 nM | GI50 [46]: 84.4 nM | TGI [46]: 360 nM | GI50 [47]: 424 nM | TGI [47]: 15800 nM | GI50 [48]: 328 nM | TGI [48]: 1690 nM | GI50 [49]: 399 nM | TGI [49]: 4360 nM | GI50 [50]: 894 nM | TGI [50]: > 100000 nM | GI50 [51]: 10800 nM | TGI [51]: 87000 nM | GI50 [52]: 473 nM | TGI [52]: 4400 nM | GI50 [53]: 523 nM | TGI [53]: 29000 nM | GI50 [54]: 404 nM | TGI [54]: > 96200 nM | GI50 [55]: 470 nM | TGI [55]: > 100000 nM | GI50 [56]: 328 nM | TGI [56]: > 38900 nM
